The results in this text go back to patent US8889638B2, “Stimulus-triggered prodrugs” (The Regents of the University of California, priority 2010, dated 2014).

A value given as a limit tells only on which side of the number the result lay.

Data set [1] addresses T1, MMP-9 (catalytic domain, human, recombinant) (Homo sapiens, UniProt P14780).
T1 construct: MMP-9 (catalytic domain, human, recombinant); purchased BIOMOL International
In words: MMP-9 inhibition assay of boronic ester proinhibitors (IC50; activation with H2O2). The format is biochemical. Conditions: for inhibition of MMP-9 with no hydrogen peroxide present / inhibition at 10 µM: 10 μM; for inhibition at 10 µM: 1 h of activation, read-out: inhibition of MMP-9 after activation with 100 μM H2O2; for IC50: proinhibitors without H2O2, read-out: IC50 against MMP-9. As for the experimental part:
(§1) MMP-9 (catalytic domain, human, recombinant) and MMP-12 (catalytic domain, human, recombinant) were purchased from Enzo Life Sciences. The assays were carried out in 96-well plates using a Bio-Tek Flx 800 plate reader. IC50 values were obtained for proinhibitors B17 and B18 against MMP-9 and MMP-12. Serial dilutions of the compounds dissolved in DMSO were incubated at 37° C. for 30 minutes with 20 μL of the appropriate MMP (0.45 U/mL for MMP-9 and 0.35 U/mL for MMP-12) in MMP assay buffer (50 mM HEPES, 10 mM CaCl2, 0.10% Brij-35, pH 7.5), for a total volume of 99 pt. The reaction was initiated by the addition of 1 μL (400 μM) of the fluorescent substrate (Mca-Pro-Leu-Gly-Leu-Dpa-Ala-Arg-NH2 where Mca=(7-methoxycoumarin-4-yl)-acetyl and Dpa=N-3-(2,4-dinitrophenyl)-L-α-β-diaminopropionyl)) and kinetic activity was measured every minute for 20 min with excitation and emission wavelengths at 335 nm and 405 nm, respectively. Measurements were performed in duplicate. The percent inhibition was plotted versus the inhibitor concentration. A linear fit of the data for each experiment gives the IC50 value of the inhibitor where y=50%.
(§2) MMP activity in the presence of H2O2 was evaluated with both MMP-9 and MMP-12 with 1 h of activation at concentrations close to their IC50 values. Using the calculated rate constants for the protected ZBGs B19 and B20, it was determined that 1 h of activation time for each proinhibitor with 100 μM H2O2 will provide enough 1,2-HOPO-2 or PY-2 to inhibit the MMPs at 50%. For example, for proinhibitor B17 with MMP-9, if the rate=k[B17][H2O2] and k=3.9 M^−1s^−1, [B17]=10 μM, and [H2O2]=100 μM, the rate of conversion would be 3.9×10^−9 M/s. Therefore, activation for 1 h would release 14 μM 1,2-HOPO-2, or enough inhibitor to provide approximately 50% inhibition of MMP-9 (IC50 value for 1,2-HOPO-2 against MMP-9 is ˜6 μM).
(§3) In each well, 1 μL of proinhibitors B17 and B18 and the inhibitors 1,2-HOPO-2 and PY-2 in DMSO (1 mM for MMP-9 or 5 μM for MMP-12) were incubated for 1 h at 37° C. with 10 μL H2O2 (1 mM in HEPES buffer, pH 7.5) in MMP assay buffer for a total volume of 79 pt. […] After activation of the proinhibitors, 20 μL of the appropriate MMP (0.45 U/mL for MMP-9 and 0.35 U/mL for MMP-12) was added and incubated for an additional 30 min. The reaction was initiated by the addition of 1 pt (400 μM) of the fluorescent substrate and kinetic activity was measured every minute for 20 min with excitation and emission wavelengths at 335 nm and 405 nm, respectively. Enzyme activity with inhibitor was calculated with respect to the control experiment (no inhibitor present). Measurements were performed in duplicate in two independent experiments.

Data set [2] addresses T2, MMP-12 (catalytic domain, human recombinant) (Homo sapiens, UniProt P39900). Nature of the data set: MMP-12 inhibition assay of boronic ester proinhibitors (IC50; activation with H2O2). The format is biochemical. Set-up: MMP-12 (catalytic domain, human, recombinant); purchased Enzo Life Sciences. Conditions: for inhibition of MMP-12 with no hydrogen peroxide present / inhibition at 0.05 µM: 50 nM; for inhibition at 0.05 µM: 1 h of activation, read-out: inhibition of MMP-12 after activation with 100 μM H2O2; for IC50 against MMP-12: proinhibitors without H2O2. As for the experimental part: as §1, §2, §3

Data set [3] in a line: Cleavage of sulfonate ester PZBGs and proMMPi by H2O2 (UV-Vis, rate constant, HPLC). Particulars: 50 μM in HEPES buffer, room temperature. The format is physicochemical. On the procedure: (§4) Absorption spectra of compounds were taken on a Perkin-Elmer Lambda 25 UV-Visible Spectrophotometer. To a 1.0 mL solution at 0.05 mM concentration of each compound in HEPES buffer (50 mM, pH 7.5) was added H2O2 (10 μL, 0.09M in HEPES) and absorption spectra were monitored over time at room temperature. Hydrolytic stability was measured by monitoring each sample in HEPES buffer over a 24 hour time period.
The pseudo-first order rate constant was calculated following literature procedure. To a 1.0 mL solution of compounds PZBG-1a, PZBG-1b, PZBG-1e, PZBG-5a, and PZBG-5b in HEPES buffer at 50 μM was added H2O2 to final concentrations of 150 μM, 250 μM, 500 μM, 750 μM, and 900 μM. Spectra were monitored over 15-30 min at room temperature with at least 50 spectra recorded at every concentration. The change in absorption at 298 nm for PZBG-1a and PZBG-1b were monitored, while the change in absorption at 288 nm was recorded for PZBG-1e, and 310 nm for PZBG-5a and PZBG-5b. The rate constant (kobs) was found from the linear slope of ln [(A−AZBG)/(Ao−AZBG)] vs. time where AZBG is the absorbance of a 50 μM sample of the ZBG or full-length inhibitor and AO is the initial absorbance of PZBG-1a, PZBG-1b, PZBG-1e, PZBG-5a, and PZBG-5b. The rate of conversion was determined from the slope of the line of kobs vs. [H2O2].
Analytical HPLC was performed on a HP Series 1050 system equipped with a Vydac® C18 reverse phase column (218 TP, 250×4.6 mm, 5 μm). […] Starting with 95% A and 5% B, an […] gradient was run for 15 min to a final solvent mixture of 5% A and 95% B, which was held for 5 min before ramping back down to 95% A and 5% B in 2 min and holding for an additional 4 min. Compounds ZBG-1a and PZBG-1a were prepared in HEPES buffer (50 mM, pH 7.5) at a concentration of 1 mM and retention times were determined. To evaluate cleavage by H2O2, a 1 mM solution of PZBG-1a in HEPES buffer was reacted with a 20-fold excess of H2O2 before analyzing under identical HPLC conditions as before.

The target of data set [4] is T2, MMP-12 (catalytic domain, human recombinant). Nature of the data set: MMP-12 fluorescence-based inhibition assay with and without H2O2 (sulfonate ester proMMPi). It is filed as biochemical. On the set-up: MMP-12 (catalytic domain, human recombinant); purchased Enzo Life Sciences. Particulars: 50 nM; for inhibition at 0.05 µM: 30 min of incubation. As for the experimental part: MMP-12 (catalytic domain, human recombinant) was purchased from Enzo Life Sciences. The assays were carried out in a 96-well plate using a Bio-Tex Flx 800 plate reader. The activity of MMP-12 was evaluated after a 30 min incubation in the presence of H2O2 and proMMPi. The concentration of proMMPi used was selected to be close to the IC50 value of the parent full-length inhibitors, 1,2-HOPO-2 and PY-2[38]. In each well, 1 μL of proinhibitors PZBG-5a, PZGB-5b, and PZBG-6a and the inhibitors 1,2-HOPO-2 and PY-2 in DMSO (5 μM) were incubated for 30 min at 37° C. with 20 μL of MMP-12 (0.35 U/mL), 10 μL H2O2 (1 mM in HEPES buffer, pH 7.5), and MMP assay buffer (50 mM HEPES, 10 mM CaCl2, 0.10% Brij-35, pH 7.5) for a total volume of 99 μL. […] The reaction was initiated by the addition of 1 μL (400 μM) of the fluorescent substrate (Mca-Pro-Leu-Gly-Leu-Dpa-Ala-Arg-NH2 where Mca=(7-methoxycoumarin-4-yl)-acetyl and Dpa=N-3-(2,4-dinitrophenyl)-L-α-β-diaminopropionyl)) after the 30 minute incubation period and kinetic activity was measured every minute for 20 minutes with excitation and emission wavelengths at 335 nm and 405 nm, respectively. Enzyme activity with inhibitor was calculated with respect to the control experiment—no inhibitor present. Measurements were performed in duplicate in two independent experiments.

Data set [5] is described as follows: Hydrolytic stability of sulfonate esters in HEPES buffer. The format is physicochemical. On the procedure: as §4
[6] abbreviates: read-out: inhibition of MMP-12 after treatment with 100 μM H2O2.
Setting [7] is: read-out: inhibition of MMP-12 before treatment with H2O2.

Usually inhibition stands for the share of the control response that was lost under treatment. The term IC50 denotes the concentration needed to halve the response being measured.

T1 sequence (P14780 107-444 limits assumed): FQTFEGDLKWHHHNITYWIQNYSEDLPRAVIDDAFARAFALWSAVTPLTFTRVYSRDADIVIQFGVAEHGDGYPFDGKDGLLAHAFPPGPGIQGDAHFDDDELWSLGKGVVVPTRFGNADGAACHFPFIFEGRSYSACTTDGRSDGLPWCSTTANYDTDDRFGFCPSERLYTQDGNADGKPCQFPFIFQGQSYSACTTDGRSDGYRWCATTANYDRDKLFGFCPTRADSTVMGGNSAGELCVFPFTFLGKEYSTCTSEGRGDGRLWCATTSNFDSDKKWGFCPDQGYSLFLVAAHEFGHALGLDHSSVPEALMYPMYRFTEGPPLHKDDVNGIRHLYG
T2 sequence (P39900 106-263 limits assumed): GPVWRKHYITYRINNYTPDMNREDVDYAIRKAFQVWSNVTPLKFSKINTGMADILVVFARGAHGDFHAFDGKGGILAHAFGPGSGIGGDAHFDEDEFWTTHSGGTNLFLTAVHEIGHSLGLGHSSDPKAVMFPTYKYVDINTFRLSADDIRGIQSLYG

On to `CC1(C)OB(c2ccc(COn3c(C(=O)NCc4ccc(-c5ccccc5)cc4)cccc3=O)cc2)OC1(C)C` [Compound B17, N-([1,1′-biphenyl]-4-ylmethyl)-6-oxo-1-((4-(4,4,5,5-tetramethyl-1,3,2-dioxaborolan-2-yl)benzyl)oxy)-1,6-dihydropyridine-2-carboxamide], for which, in data set [1], the “inhibition of MMP-9 with no hydrogen peroxide present” value was “little inhibition”, the inhibition at 10 µM is 50% and the IC50 was above 1 mM. Besides, in data set [2], the “inhibition of MMP-12 with no hydrogen peroxide present” value is “little inhibition”, the inhibition at 0.05 µM was 50% and the “IC50 against MMP-12” value is “micromolar range”.

`O=C(O)c1ccc(S(=O)(=O)On2c(C(=O)NCc3ccc(-c4ccccc4)cc3)cccc2=O)cc1` [PZBG-5b, 4-(((6-(([1,1′-Biphenyl]-4-ylmethyl)carbamoyl)-2-Oxopyridin-1(2H)yl)oxy)sulfonyl)benzoic acid]: the “pseudo-first order rate constant with an excess of H2O2 (full-length proMMPi)” value in data set [3] was determined as 1.1 M⁻¹ s⁻¹. In addition, the inhibition at 0.05 µM in data set [4] (setting [6]) is around 50%; in data set [4] (setting [7]) it was around 30%. Further, in data set [5] (after 3 h), the “hydrolysis in buffer alone” value was around 50%.

In the case of `O=C(NCc1ccc(-c2ccccc2)cc1)c1occc(=O)c1OS(=O)(=O)c1ccccc1` [PZBG-6a, 2-(([1,1′-Biphenyl]-4-ylmethyl)carbamoyl)-4-oxo-4H-pyran-3-yl benzenesulfonate], the “change in inhibitory activity against MMP-12 upon exposure to H2O2” value in data set [4] (negative control) is given as “no significant change in inhibitory activity”.

For `CC1(C)OB(c2ccc(COc3c(C(=O)NCc4ccc(-c5ccccc5)cc4)occc3=O)cc2)OC1(C)C` [Compound B18, N-([1,1′-biphenyl]-4-ylmethyl)-4-oxo-3-((4-(4,4,5,5-tetramethyl-1,3,2-dioxaborolan-2-yl)benzyl)oxy)-4H-pyran-2-carboxamide], in data set [1], the “inhibition of MMP-9 with no hydrogen peroxide present” value is reported as “little inhibition”, the inhibition at 10 µM is 50% and the IC50 was above 1 mM. Also, in data set [2], the “inhibition of MMP-12 with no hydrogen peroxide present” value is listed as “little inhibition”, the inhibition at 0.05 µM turned out to be 50% and the “IC50 against MMP-12” value is “micromolar range”.

As to `Cc1ccc(S(=O)(=O)On2ccccc2=O)cc1` [PZBG-1b, 2-Oxopyridin-1(2H)-yl-4-methylbenzenesulfonate], in data set [3], the “pseudo-first order rate constant with an excess of H2O2” value worked out at 0.3 M⁻¹ s⁻¹. This compound also registered a cleavage in buffer in data set [5] (in 24 h) of around 30%.

Regarding `O=c1ccccn1OS(=O)(=O)c1ccccc1` [PZBG-1a, 2-Oxopyridin-1(2H)-yl benzenesulfonate], the “pseudo-first order rate constant with an excess of H2O2” value in data set [3] stood at 0.7 M⁻¹ s⁻¹. In data set [5] (in 6 h), the cleavage in buffer is around 50%.

On to `O=C(NCc1ccc(-c2ccccc2)cc1)c1cccc(=O)n1OS(=O)(=O)c1ccccc1` [PZBG-5a, 6-(([1,1′-Biphenyl]-4-ylmethyl)carbamoyl)-2-Oxopyridin-1(2H)-yl benzenesulfonate], for which, in data set [3], the “pseudo-first order rate constant with an excess of H2O2 (full-length proMMPi)” value amounted to 0.3 M⁻¹ s⁻¹. Also, the inhibition at 0.05 µM is around 30% in data set [4] (setting [6]) and around 20% in data set [4] (setting [7]). Besides, in data set [5] (after 9 h), the “hydrolysis in buffer alone” value was around 50%.
